Test results: the supplement of paper PMC10307832

Columns and labels:
Assay in all cases: relative viability (nuclei count vs DMSO), 5 days (fraction); higher = more cells survive
[1] = compound: CCOc1cc2ncc(C#N)c(Nc3ccc(OCc4ccccn4)c(Cl)c3)c2cc1NC(=O)/C=C/CN(C)C [Neratinib]
Method in brief: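 After an overnight hold at 37 °C, lung cancer cell lines in 1536-well plates were pinned with five library-drug doses (not always all listed), each √10 from the next, on vehicle-anchored plates. The cells stayed 5 days without fresh medium, then a one-step fix, permeabilisation and Hoechst stain preceded 4× imaging and MetaXpress nuclear counts. A plate passed only with control CV under 25% and at least one doubling. Viability is the median, over plates, of treated-well nuclei relative to vehicle-well nuclei.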

[2] = compound: CCOc1cc2ncc(C#N)c(Nc3ccc(OCc4ccccn4)c(Cl)c3)c2cc1NC(=O)/C=C/CN(C)C [Neratinib] + CC(=O)c1c(C)c2cnc(Nc3ccc(N4CCNCC4)cn3)nc2n(C2CCCC2)c1=O [Palbociclib] (partner 0.5 µM)
Method in brief: (§1)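 Nuclei were stained with Hoechst during a one-step fixation (final 0.05% Triton X-100, 1% formaldehyde, 1 ug/ml Hoechst) carried out 5 days after dosing, then counted on 4× images. The cells, lung cancer lines in 1536-well plates, had been dosed by pin tool the day after seeding with one drug alone or a fixed anchor-drug dose plus five library-drug doses (not always all listed) in √10 steps. Relative viability is the nuclei count in treated wells divided by that in vehicle wells, and each value is the median of duplicate plates.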

[3] = compound: CCOc1cc2ncc(C#N)c(Nc3ccc(OCc4ccccn4)c(Cl)c3)c2cc1NC(=O)/C=C/CN(C)C [Neratinib] + COc1cc2c(Oc3ccc(NC(=O)C4(C(=O)Nc5ccc(F)cc5)CC4)cc3F)ccnc2cc1OCCCN1CCOCC1 [Foretinib] (partner 0.25 µM)
Method in brief: as §1

[4] = compound: CCOc1cc2ncc(C#N)c(Nc3ccc(OCc4ccccn4)c(Cl)c3)c2cc1NC(=O)/C=C/CN(C)C [Neratinib] + COc1cccc2cc(-c3nc([C@H]4CC[C@H](C(=O)O)CC4)n4ncnc(N)c34)[nH]c12 [OSI-027] (partner 0.5 µM)
Method in brief: as §1

| Cell Line | relative viability ([1]; 0.01 µM) | relative viability ([1]; 0.03162 µM) | relative viability ([1]; 0.1 µM) | relative viability ([1]; 0.3162 µM) | relative viability ([1]; 1 µM) | relative viability ([2]; first compound 0.01 µM) | relative viability ([2]; first compound 0.03162 µM) | relative viability ([2]; first compound 0.1 µM) | relative viability ([2]; first compound 0.3162 µM) | relative viability ([2]; first compound 1 µM) | relative viability ([3]; first compound 0.01 µM) | relative viability ([3]; first compound 0.03162 µM) | relative viability ([3]; first compound 0.1 µM) | relative viability ([3]; first compound 0.3162 µM) | relative viability ([4]; first compound 0.01 µM) | relative viability ([4]; first compound 0.03162 µM) | relative viability ([4]; first compound 0.1 µM) | relative viability ([4]; first compound 0.3162 µM) | relative viability ([4]; first compound 1 µM) | relative viability ([3]; first compound 1 µM) |
| --- | --- | --- | --- | --- | --- | --- | --- | --- | --- | --- | --- | --- | --- | --- | --- | --- | --- | --- | --- | --- |
| 201T | 1.01 | 0.996 | 0.929 | 1.02 | 0.934 | 0.361 | 0.351 | 0.343 | 0.321 | 0.335 | 1.06 | 1.12 | 0.797 | 0.995 | 0.725 | 0.889 | 0.683 | 0.646 | 0.611 | – |
| A-427 | 1.19 | 1.1 | 1.01 | 0.949 | 0.986 | 0.554 | 0.576 | 0.565 | 0.488 | 0.513 | 1.05 | – | 0.972 | 0.935 | 0.487 | 0.499 | 0.467 | 0.332 | 0.218 | 0.255 |
| ABC-1 | 1.06 | 1.06 | 0.898 | 0.777 | 0.364 | 0.618 | 0.721 | 0.472 | 0.587 | 0.486 | 1.16 | 1.12 | 0.689 | 0.954 | 0.436 | 0.441 | 0.47 | 0.42 | 0.214 | 0.466 |
| BEN | – | 1.18 | 1.03 | 0.849 | 0.753 | 0.459 | 0.47 | 0.45 | 0.457 | 0.447 | 0.66 | 0.631 | 0.822 | 0.657 | 0.286 | 0.304 | 0.275 | 0.283 | 0.286 | 0.498 |
| CAL-12T | 1.06 | 1.09 | 0.868 | 0.631 | 0.301 | 0.41 | 0.478 | 0.179 | 0.118 | 0.184 | 1.04 | 1.12 | 0.979 | 0.824 | 0.614 | 0.719 | 0.345 | 0.237 | 0.197 | 0.284 |
| COR-L23 | 1.21 | 1.17 | 0.87 | 1.02 | 0.86 | 0.328 | 0.333 | 0.275 | 0.255 | 0.216 | 1.09 | 1.03 | 0.946 | 0.966 | 0.863 | 0.862 | 0.753 | 0.68 | 0.285 | 0.837 |
| COR-L 105 | 0.904 | – | 0.687 | 0.329 | 0.297 | 0.397 | 0.451 | 0.385 | 0.351 | 0.341 | 0.995 | 1.28 | 0.54 | 0.324 | 0.863 | 0.54 | 0.36 | 0.226 | 0.283 | 0.284 |
| Calu-6 | 1.06 | – | 0.992 | 0.955 | 0.835 | – | – | – | – | – | 0.929 | 0.891 | 0.736 | 0.85 | – | – | – | – | – | 0.513 |
